From US7601716B2, “Pyridopyrazines and derivatives thereof as ALK and c-Met inhibitors” (Cephalon, Inc., priority 2006, dated 2009)
Where a name gives a salt, the structure may show the parent alone.

Columns and labels:
[1] = biological target: T1, c-Met (cytoplasmic domain) (Homo sapiens, UniProt P08581); assay: c-Met Kinase Assay (ELISA/TRF, PLC-γ substrate); format: biochemical; conditions: 3 μM ATP (Km level); read-out: c-Met Kinase Inhibition (IC50)
T1 construct: Reactions were initiated with 30 ng/mL c-Met (cytoplasmic domain, Invitrogen Corporation #PV3143); purchased Invitrogen Corporation PV3143
Experimental: Example compounds were tested for their ability to inhibit the kinase activity of baculovirus-expressed ALK using a modification of the ELISA protocol reported for trkA in Angeles, T. S. et al., Anal. Biochem. 1996, 236, 49-55, which is incorporated herein by reference in its entirety. Phosphorylation of the substrate, phospholipase C-gamma (PLC-γ) generated as a fusion protein with glutathione S-transferase (GST) as reported in Rotin, D. et al., EMBO J. 1992, 11, 559-567, which is incorporated herein by reference in its entirety, was detected with a europium-labeled anti-phosphotyrosine antibody and measured by time-resolved fluorescence (TRF). Briefly, each 96-well plate was coated with 100 μL/well of 10 μg/mL substrate (phospholipase C-γ) in Tris-buffered saline (TBS). […] The reaction was initiated by adding enzyme (30 ng/ml ALK) and was allowed to proceed at 37° C. for 15 minutes. Detection of the phosphorylated product was performed by adding 100 μl/well of Eu-N1 labeled PT66 antibody (Perkin Elmer # AD0041). Incubation at 37° C. then proceeded for one (1) hour, followed by addition of 100 μL enhancement solution (Wallac #1244-105). The plate was gently agitated and after thirty minutes, the fluorescence of the resulting solution was measured using the EnVision 2100 (or 2102) multilabel plate reader (Perkin Elmer).
Data analysis was performed using ActivityBase (IDBS, Guilford, UK). IC50 values were calculated by plotting percent inhibition versus log10 of the concentration of compound and fitting to the nonlinear regression sigmoidal dose-response (variable slope) equation in XLFit (IDBS, Guilford, UK).
Reactions were initiated with 30 ng/mL c-Met (cytoplasmic domain, Invitrogen Corporation #PV3143).

[2] = biological target: baculovirus-expressed ALK (Homo sapiens, UniProt Q9UM73); assay: ALK Kinase Assay (ELISA/TRF, PLC-γ substrate); format: biochemical; conditions: read-out: ALK Kinase Inhibition (IC50); also: 1 µM ATP (Km level)
Method in brief: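 Plates coated with GST–PLC-γ fusion substrate (10 μg/mL in TBS); reaction started with 30 ng/ml ALK, run 15 minutes at 37° C. Phosphotyrosine detected by Eu-N1 PT66 antibody (1 hour, 37° C) and time-resolved fluorescence after enhancement. IC50 from sigmoidal variable-slope fit of percent inhibition versus log concentration.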

Chain of baculovirus-expressed ALK (Q9UM73 19-1620): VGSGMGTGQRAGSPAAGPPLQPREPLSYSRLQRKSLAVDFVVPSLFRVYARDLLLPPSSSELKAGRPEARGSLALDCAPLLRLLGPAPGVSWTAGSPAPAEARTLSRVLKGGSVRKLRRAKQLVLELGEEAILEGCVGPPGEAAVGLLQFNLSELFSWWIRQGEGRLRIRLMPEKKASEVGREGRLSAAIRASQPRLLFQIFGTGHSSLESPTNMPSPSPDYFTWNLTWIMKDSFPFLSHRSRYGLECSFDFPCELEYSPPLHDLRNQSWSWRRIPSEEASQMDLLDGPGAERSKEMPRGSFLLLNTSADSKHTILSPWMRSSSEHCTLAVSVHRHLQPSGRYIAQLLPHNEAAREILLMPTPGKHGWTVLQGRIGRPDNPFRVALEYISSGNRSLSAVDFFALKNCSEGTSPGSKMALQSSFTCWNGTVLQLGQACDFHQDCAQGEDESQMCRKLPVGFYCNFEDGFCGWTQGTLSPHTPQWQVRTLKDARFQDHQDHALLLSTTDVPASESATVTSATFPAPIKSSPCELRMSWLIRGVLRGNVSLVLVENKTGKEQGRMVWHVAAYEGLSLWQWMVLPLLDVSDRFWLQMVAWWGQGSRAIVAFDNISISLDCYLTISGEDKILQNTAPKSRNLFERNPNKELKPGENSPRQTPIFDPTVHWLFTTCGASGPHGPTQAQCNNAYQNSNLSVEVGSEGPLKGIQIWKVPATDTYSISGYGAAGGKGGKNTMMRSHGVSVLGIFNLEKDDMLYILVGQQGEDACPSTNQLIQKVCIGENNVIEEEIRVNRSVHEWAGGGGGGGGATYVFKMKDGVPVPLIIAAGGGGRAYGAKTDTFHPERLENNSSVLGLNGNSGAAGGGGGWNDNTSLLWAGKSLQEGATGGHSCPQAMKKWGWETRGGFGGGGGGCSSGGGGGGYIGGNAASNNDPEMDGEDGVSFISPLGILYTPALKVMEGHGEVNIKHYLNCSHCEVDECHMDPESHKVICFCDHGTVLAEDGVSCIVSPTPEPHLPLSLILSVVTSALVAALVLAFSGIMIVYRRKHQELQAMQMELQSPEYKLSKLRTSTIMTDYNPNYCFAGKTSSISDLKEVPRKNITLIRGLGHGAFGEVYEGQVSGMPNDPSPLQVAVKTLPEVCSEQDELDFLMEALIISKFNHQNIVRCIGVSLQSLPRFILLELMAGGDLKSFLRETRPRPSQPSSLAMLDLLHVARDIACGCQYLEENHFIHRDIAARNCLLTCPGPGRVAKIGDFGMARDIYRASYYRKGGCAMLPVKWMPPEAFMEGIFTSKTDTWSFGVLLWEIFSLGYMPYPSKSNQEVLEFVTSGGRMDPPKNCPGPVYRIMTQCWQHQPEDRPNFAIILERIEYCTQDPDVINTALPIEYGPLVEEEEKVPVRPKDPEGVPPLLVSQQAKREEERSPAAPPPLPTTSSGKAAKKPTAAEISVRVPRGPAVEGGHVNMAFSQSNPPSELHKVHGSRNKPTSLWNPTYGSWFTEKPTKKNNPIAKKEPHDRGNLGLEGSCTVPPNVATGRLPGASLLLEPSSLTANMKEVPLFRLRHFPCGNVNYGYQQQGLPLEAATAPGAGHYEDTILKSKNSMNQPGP
T1 sequence (P08581 956-1390 limits assumed): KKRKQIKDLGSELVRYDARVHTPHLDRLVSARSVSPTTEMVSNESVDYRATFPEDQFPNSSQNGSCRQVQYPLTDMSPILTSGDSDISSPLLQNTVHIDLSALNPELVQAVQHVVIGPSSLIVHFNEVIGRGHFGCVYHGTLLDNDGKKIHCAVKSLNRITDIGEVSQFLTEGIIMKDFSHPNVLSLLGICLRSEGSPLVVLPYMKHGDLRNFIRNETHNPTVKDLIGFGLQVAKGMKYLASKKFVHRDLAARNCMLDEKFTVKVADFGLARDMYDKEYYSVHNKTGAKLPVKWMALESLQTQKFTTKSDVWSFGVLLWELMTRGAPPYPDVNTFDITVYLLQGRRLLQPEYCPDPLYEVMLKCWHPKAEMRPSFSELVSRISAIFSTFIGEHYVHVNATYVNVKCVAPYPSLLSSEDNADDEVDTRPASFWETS

Structure (SMILES)	IC50 [1]	IC50 [2]
CN1CCN(c2ccc(-c3cnc4c(c3)N(S(=O)(=O)c3ccccc3)CCN4)cn2)CC1 [Example 125, 1-Benzenesulfonyl-7-[6-(4-methylpiperazin-1-yl)pyridin-3-yl]-1,2,3,4-tetrahydropyrido[2,3-b]pyrazine]	10 to 100 µM	0.1 to 1 µM
Clc1cccc(Cl)c1CN1CCNc2ncc(-c3cccnc3)cc21 [Example 138, 1-(2,6-Dichlorobenzyl)-7-pyridin-3-yl-1,2,3,4-tetrahydropyrido[2,3-b]pyrazine, trifluoroacetic acid salt]	10 to 100 µM	1 to 10 µM
CC(c1cc(F)c(F)cc1F)N1C(=O)CNc2ncc(I)cc21 (centres unmarked) [Example 145, 7-Iodo-1-[1-(2,4,5-trifluorophenyl)ethyl]-3,4-dihydro-1H-pyrido[2,3-b]pyrazin-2-one]	> 100 µM	> 100 µM
CC(c1cc(F)c(F)cc1F)N1C(=O)CNc2ncc(-c3ccc(C(=O)N4CCN(C)CC4)cc3)cc21 (centres unmarked) [Example 146, 7-[4-(4-Methylpiperazine-1-carbonyl)phenyl]-1-[1-(2,4,5-trifluorophenyl)ethyl]-3,4-dihydro-1H-pyrido[2,3-b]pyrazin-2-one, trifluoroacetic acid salt]	10 to 100 µM	> 100 µM
CC(c1cc(F)c(F)cc1F)N1CCNc2ncc(-c3ccc(C(=O)N4CCC[C@H]4CN4CCCC4)cc3)cc21 (stereo partly drawn) [Example 148, S-{2-[(pyrrolidin-1-yl)methyl]pyrrolidin-1-yl}-(4-{1-[1-(2,4,5-trifluorophenyl)ethyl]-1,2,3,4-tetrahydropyrido[2,3-b]pyrazin-7-yl}phenyl)methanone, trifluoroacetic acid salt]	10 to 100 µM	0.1 to 1 µM
CC(c1cc(F)c(F)cc1F)N1CCNc2ncc(-c3ccc(C(=O)N4CCN(C)CC4)cc3)cc21 (centres unmarked) [Example 149, (4-Methylpiperazin-1-yl)-(4-{1-[1-(2,4,5-trifluorophenyl)ethyl]-1,2,3,4-tetrahydropyrido[2,3-b]pyrazin-7-yl}phenyl)methanone]	> 100 µM	> 100 µM
CC(c1cc(F)ccc1F)N1C(=O)CNc2ncc(-c3ccc(C(=O)N4CCC[C@H]4CN4CCCC4)cc3)cc21 (some centres unmarked) [Example 151]	10 to 100 µM	0.1 to 1 µM
CC(c1cc(F)ccc1F)N1CCNc2ncc(I)cc21 (centres unmarked) [Example 153, 1-[1-(2,5-Difluorophenyl)ethyl]-7-iodo-1,2,3,4-tetrahydropyrido[2,3-b]pyrazine]	> 100 µM	> 100 µM
NCC#Cc1cnc2c(c1)N(Cc1c(Cl)cccc1Cl)CCN2 [Example 171, 3-[1-(2,6-Dichlorobenzyl)-1,2,3,4-tetrahydropyrido[2,3-b]pyrazin-7-yl]prop-2-ynylamine, trifluoroacetic acid salt]	> 100 µM	10 to 100 µM
CC(c1c(F)ccc(F)c1Cl)N1C(=O)CNc2ncc(I)cc21 (centres unmarked) [Example 175, 1-[1-(2-Chloro-3,6-difluorophenyl)ethyl]-7-iodo-3,4-dihydro-1H-pyrido[2,3-b]pyrazin-2-one]	> 100 µM	> 100 µM
Fc1cccc(CN2CCNc3ncc(I)cc32)c1C(F)(F)F [Example 179, 1-[3-Fluoro-2-(trifluoromethyl)benzyl]-7-iodo-1,2,3,4-tetrahydropyrido[2,3-b]pyrazine]	> 100 µM	> 100 µM
CN1CCN(c2ccc(-c3cnc4c(c3)N(Cc3cc(Cl)ccc3Cl)CCN4C)cn2)CC1 [Example 188, 1-(2,5-Dichlorobenzyl)-4-methyl-7-[6-(4-methylpiperazin-1-yl)pyridin-3-yl]-1,2,3,4-tetrahydropyrido[2,3-b]pyrazine]	> 100 µM	1 to 10 µM
O=C(O)c1ccc(-c2cnc3c(c2)N(Cc2cc(Cl)ccc2C(F)(F)F)CCN3)cc1 [Example 195, 4-{1-[5-Chloro-2-(trifluoromethyl)benzyl]-1,2,3,4-tetrahydropyrido[2,3-b]pyrazin-7-yl}benzoic acid]	1 to 10 µM	1 to 10 µM
O=C(O)c1cccc(-c2cnc3c(c2)N(Cc2cc(Cl)ccc2C(F)(F)F)CCN3)c1 [Example 196, 3-{1-[5-Chloro-2-(trifluoromethyl)benzyl]-1,2,3,4-tetrahydropyrido[2,3-b]pyrazin-7-yl}benzoic acid]	10 to 100 µM	1 to 10 µM
FC(F)(F)c1ccc(Cl)cc1CN1CCNc2ncc(-c3cc[nH]c3)cc21 [Example 202, 1-[5-Chloro-2-(trifluoromethyl)benzyl]-7-(1H-pyrrol-3-yl)-1,2,3,4-tetrahydro-pyrido[2,3-b]pyrazine]	10 to 100 µM	0.1 to 1 µM
O=C(c1cnc2c(c1)N(Cc1cc(Cl)ccc1Cl)CCN2)N1CCN(c2ccccc2)CC1 [Example 206, [1-(2,5-Dichlorobenzyl)-1,2,3,4-tetrahydropyrido[2,3-b]pyrazin-7-yl]-(4-phenylpiperazin-1-yl)-methanone]	> 100 µM	10 to 100 µM
O=C(c1cnc2c(c1)N(Cc1cc(Cl)ccc1Cl)CCN2)N1CCN(c2ncccn2)CC1 [Example 207, [1-(2,5-Dichlorobenzyl)-1,2,3,4-tetrahydropyrido[2,3-b]pyrazin-7-yl]-(4-pyrimidin-2-yl-piperazin-1-yl)-methanone]	> 100 µM	1 to 10 µM
O=C(c1cnc2c(c1)N(Cc1cc(Cl)ccc1Cl)CCN2)N1CCC(O)(c2ccc(Cl)cc2)CC1 [Example 208, [4-(4-Chlorophenyl)-4-hydroxypiperidin-1-yl]-[1-(2,5-dichlorobenzyl)-1,2,3,4-tetrahydropyrido[2,3-b]pyrazin-7-yl]methanone]	> 100 µM	1 to 10 µM

Second part, the molecule after the results:

IC50 [1]	IC50 [2]	Structure (SMILES)
10 to 100 µM	0.1 to 1 µM	COc1ncc(-c2cnc3c(c2)N(Cc2cc(Cl)ccc2Cl)CCN3)cn1 [Example 129, 1-(2,5-Dichlorobenzyl)-7-(2-methoxypyrimidin-5-yl)-1,2,3,4-tetrahydropyrido[2,3-b]pyrazine]
1 to 10 µM	0.1 to 1 µM	CN(C)CCCCCCNC(=O)c1ccc(-c2cnc3c(c2)N(Cc2c(Cl)cccc2Cl)C(=O)CN3)cc1 [Example 143, 4-[1-(2,6-Dichlorobenzyl)-2-oxo-1,2,3,4-tetrahydropyrido[2,3-b]pyrazin-7-yl]-N-(6-dimethylaminohexyl)benzamide, trifluoroacetic acid salt]
> 100 µM	10 to 100 µM	CC(c1cc(F)c(F)cc1F)N1CCNc2ncc(I)cc21 (centres unmarked) [Example 147, 7-Iodo-1-[1-(2,4,5-trifluorophenyl)ethyl]-1,2,3,4-tetrahydropyrido[2,3-b]pyrazine]
> 100 µM	> 100 µM	CC(c1cc(F)ccc1F)N1C(=O)CNc2ncc(I)cc21 (centres unmarked) [Example 150, 1-[1-(2,5-Difluorophenyl)ethyl]-7-iodo-3,4-dihydro-1H-pyrido[2,3-b]pyrazin-2-one]
10 to 100 µM	1 to 10 µM	CC(c1cc(F)ccc1F)N1C(=O)CNc2ncc(-c3ccc(C(=O)N4CCN(C)CC4)cc3)cc21 (centres unmarked) [Example 152, 1-[1-(2,5-Difluorophenyl)ethyl]-7-[4-(4-methylpiperazine-1-carbonyl)phenyl]-3,4-dihydro-1H-pyrido[2,3-b]pyrazin-2-one, trifluoroacetic acid salt]
> 100 µM	1 to 10 µM	CC(C)(C)OC(=O)NCC#Cc1cnc2c(c1)N(Cc1c(Cl)cccc1Cl)CCN2 [Example 170, {3-[1-(2,6-Dichlorobenzyl)-1,2,3,4-tetrahydropyrido[2,3-b]pyrazin-7-yl]prop-2-ynyl}carbamic acid tert-butyl ester]
1 to 10 µM	0.1 to 1 µM	CN1CCN(c2ccc(-c3cnc4c(c3)N(Cc3cccc(F)c3C(F)(F)F)CCN4)cn2)CC1 [Example 181, 1-[3-Fluoro-2-(trifluoromethyl)benzyl]-7-[6-(4-methylpiperazin-1-yl)pyridin-3-yl]-1,2,3,4-tetrahydropyrido[2,3-b]pyrazine]
1 to 10 µM	0.1 to 1 µM	Fc1ccc(F)c(CN2CCNc3ncc(-c4ccnc(N5CCCC5)c4)cc32)c1Cl [Example 183, 1-(2-Chloro-3,6-difluorobenzyl)-7-(2-pyrrolidin-1-yl-pyridin-4-yl)-1,2,3,4-tetrahydropyrido[2,3-b]pyrazine]
> 100 µM	> 100 µM	CN1CCN(Cc2cc(Cl)ccc2Cl)c2cc(I)cnc21 [Example 187, 1-(2,5-Dichlorobenzyl)-7-iodo-4-methyl-1,2,3,4-tetrahydropyrido[2,3-b]pyrazine]
1 to 10 µM	0.1 to 1 µM	CN(C)CCn1cc(-c2cnc3c(c2)N(Cc2c(F)ccc(F)c2Cl)CCN3)cn1 [Example 197, (2-{4-[1-(2-Chloro-3,6-difluorobenzyl)-1,2,3,4-tetrahydropyrido[2,3-b]pyrazin-7-yl]-pyrazol-1-yl}ethyl)dimethylamine]
